Data published in patent publication US9175077B2, “Nucleic acids encoding biologically active polypeptides derived from a novel early stage pregnancy factor designated maternin (MA)” (NOBEL BIOSCIENCES LLC, priority 1999, dated 2015).

Key:
Ewing's sarcoma = experiment: Confocal microscopy apoptosis; type: cell-based, human; conditions: 200 ng/ml; 24 hrs
Description: (§1) More extensive studies of the effects of MA and with truncated synthetic forms of MA (MAS) on a wide range of other human tumor cells were carried out using three-dimensional confocal microscopy. Cells were cultured and then seeded onto gelatinized glass chamber slides and incubated 24 hrs with the various test materials. The slides were then fixed with formalin and treated serially with Triton X-100 (0.01%) for 10 min at 25°, 0.4 ug/ml fluorescein isothiocyanate (FITC)-labeled Phalloidin (Sigma Chem. Co.) at room temperature for 30 min to bind actin, washed with PBS and the DNA stained with Propidium iodide (PI) (0.5 ug·ml) (Sigma Chemical Co.), for 15 min. The stained slides were washed and mounted on slow fade (Molecular Probes, Inc., Eugene, Oreg.) and examined through a dual emission filter XF53 (Omega, Inc., Brattlesboro, Va.) by fluorescent microscopy. In some experiments only DNA staining was performed. In these instances Triton X-100 was not used. The slides were stained with PI and examined for cell morphology and chromatin degradation under 3D confocal microscopy.

KS Y-1 cells = experiment: Confocal microscopy apoptosis; type: cell-based, human; conditions: 200 ng/ml; 24 hrs
Description: as §1

[1] = test system: carcinoma of the breast HTB124; experiment: Confocal microscopy apoptosis; type: cell-based, human; conditions: 200 ng/ml; 24 hrs
Description: as §1

carcinoma of the colon = experiment: Confocal microscopy apoptosis; type: cell-based, human; conditions: 200 ng/ml; 24 hrs
Description: as §1

[2] = test system: carcinoma of the kidney HTB46; experiment: Confocal microscopy apoptosis; type: cell-based, human; conditions: 200 ng/ml; 24 hrs
Description: as §1

[3] = test system: carcinoma of the lung HTB184; experiment: Confocal microscopy apoptosis; type: cell-based, human; conditions: 200 ng/ml; 24 hrs
Description: as §1

[4] = test system: carcinoma of the pancreas CRL 1682; experiment: Confocal microscopy apoptosis; type: cell-based, human; conditions: 200 ng/ml; 24 hrs
Description: as §1

fibrosarcoma 4TB166 = experiment: Confocal microscopy apoptosis; type: cell-based, human; conditions: 200 ng/ml; 24 hrs
Description: as §1

gliobastoma HTB16 = experiment: Confocal microscopy apoptosis; type: cell-based, human; conditions: 200 ng/ml; 24 hrs
Description: as §1

[5] = test system: leukemia and lymphoma cell lines: HUT78, DAVDI, HG, SULTAN, T-cell lymphoma; experiment: Confocal microscopy apoptosis; type: cell-based, human; conditions: 200 ng/ml; 24 hrs
Description: as §1

melanoma HTB67 = experiment: Confocal microscopy apoptosis; type: cell-based, human; conditions: 200 ng/ml; 24 hrs
Description: as §1

[6] = test system: prostate carcinoma cell line PC3; experiment: Confocal microscopy apoptosis; type: cell-based, human; conditions: 200 ng/ml; 24 hrs
Description: as §1

[7] = test system: prostate carcinoma cell line PC4; experiment: Confocal microscopy apoptosis; type: cell-based, human; conditions: 200 ng/ml; 24 hrs
Description: as §1

[8] = Lethally irradiated rats and mice; conditions: treated at time of radiation, 3×/week for 4 weeks
Description: In order to determine in vivo relevance of the prohematopoietic effects of MA treated rats and mice under several conditions of bone marrow suppression. First, the effects of native MA and pMA and of the synthetic 15-mer MAS1 were treated for their capacity to reduce or prevent the effects of lethal doses of gamma irradiation. […] MA, pMA, MAS1, and various control polypeptides were given 48 and 24 hrs before, during, or 24 hrs after radiation. The animals treated prior to radiation received either 100 ng vs. 1 ug (rats) or 50 ng vs. 500 ng (mice) as 2 subcutaneous injections.
It is not yet possible to determine the precise molar dose of pMA because of less certainty on its full-length sequence.
To ascertain that the MA effect did promote hematopoiesis in these animals we examined the bone marrow for cellularity and colony formation and determined peripheral blood counts.

[9] = Lethal dose taxol in Sprague-Dawley rats; type: in vivo
Description: Sprague-Dawley rats were given taxol in large lethal doses, 4.5 mg in one I.P. inoculation. […] Bone marrow suppression can also be a side effect of the clinical use of taxol.^179 As in the radiation experiments, either MA, pMA, MAS1, or various polypeptide controls were given subcutaneously only in two doses 24 and 48 hrs before taxol treatment or were given 3×/week for 4 weeks. […]

Acutely bled rats = type: in vivo, Sprague-Dawley rats; conditions: i.p. 24 and 48 hrs after 35-40% blood loss
Source text: To delineate the effects of MA on hematopoiesis in the absence of any external bone marrow suppression, blood (35-40% of total blood volume) was removed from five Sprague-Dawley rats by intracardiac puncture. […] Each panel illustrates the mean values for the three animals treated with MAS1. Thus, MA and related derivatives have potent pro-hematopoietic effects.

[10] = test system: human primitive hematopoietic stem cells; experiment: Long term cultures (LTC-IC, stroma-free) of CD34+, CD38− cells from human BMMC; type: cell-based
Description: In the human system, a long-term culture-initiating assay (LTC-IC) can be used to detect cells that can generate myeloid clonogenic cells (CFC/colony forming cells) in long-term cultures for a minimum of 5 weeks. Bone marrow stromal was produced by culturing 107 fresh BM-MNC in a T25 flash for at least 2 weeks in 5 mL stromal medium; 12.5% horse [HS] and 12.5% fetal calf serum [FCS]; both from hyclone [Logan, Utah], Iscove's modified Dulbecco's medium [IMDM, GIBCO-BRL], 2-mercaptoethanol [Sigma, st. Louis, Mo.], 10^−6 mol/L hydrocortisone [Sigma] and penicillin/streptomycine.
One or 2 days before co-cultures, bone marrow stroma was irradiated with 15Gy and plated at 7×10^3/cm^2 in 24-well plates to form pre-established stromal layers for the long-term cultures. Limiting dilution was 1 to 1000 CD34+ bone marrow/cord blood cells and equivalent aliquots, i.e., limiting dilutions of the cells grown in long-term cultures stroma-free cultures after 2 to 20 weeks were seeded on top of the irradiated bone marrow stroma in culture medium containing IMDM, 12.5% HS, 12.5% FCS, 2-mercptoethanol, and 10^−6 mon-hydrocortisone for 5 weeks LTC-IC assay period. Non-adherent cells were removed from the cultures, combined with the corresponding trypsinized adherent cells, washed and assayed for colony forming units (CFU-Cs) in methylcellulose medium containing 1.3% methylcellulose (Fluka Chemilka Biochemika, buck\hs, Switzerland), 30% FCS, EPO (3 U/ml), IL-3 (20 ng/ml), G-CSF (20 ng/ml), GM-CSF (20 ng/ml) and KL (c-kit, 50 ng/ml). These cultures were incubated at 37° C. and colonies were scored 2 to 3 weeks later. LTC-IC enumeration was based on the number of CFU-C scored in the limiting assays [LDA] and another technique.
Stroma-free long-term cultures were performed as follows. 2 to 10×10^3 CD34+/CD34^−CD38^− from bone marrow/CB/PBMC cells were cultured in quadrutriplicate flat bottomed 24 well plates in 1 ml to of IMDM supplemented with 10% FCS and the following cytokines: IL-3 (10 ng/ml), IL-6 (10 ng/ml), KL [c-kit 50 ng/ml, FL (50 ng/ml) and TPO (10 U/ml), which added, alone or in combination of two or more factors, to each series of microwells twice a week. The wells were grown at 37° C. and share a number of features with in vivo murine long-term repopulating cells. These include assay for cobblestone areas colony forming cells (CAFC), high proliferative potentials colony-forming cells (HPP-CFC), CFU-GEMM, CFU-B1 (blast colony forming units).

For “VRFESIRLPGCPRGV (listed as Homo sapiens) [MAS1]”, the induction of apoptosis (Ewing's sarcoma) was “induced apoptosis”, the induction of apoptosis (KS Y-1 cells) was “induced apoptosis” and the induction of apoptosis [1] was “induced apoptosis”. For the same sequence, the induction of apoptosis (carcinoma of the colon) was “induced apoptosis”, the induction of apoptosis [2] was “induced apoptosis” and the induction of apoptosis [3] was “induced apoptosis”. For the same sequence, the induction of apoptosis [4] was “induced apoptosis”, the induction of apoptosis (fibrosarcoma 4TB166) was “induced apoptosis” and the induction of apoptosis (gliobastoma HTB16) was “induced apoptosis”. The induction of apoptosis [5] was “induced apoptosis”, the induction of apoptosis (melanoma HTB67) was “induced apoptosis” and the induction of apoptosis [6] was “induced apoptosis”. The induction of apoptosis [7] was “induced apoptosis”, the survival ([8]; higher dose, over 100 days) was 100% and the survival ([8]; lowest doses) was 80%. The “survival of pretreated animals” value ([9]; low dose, two doses 24 and 48 hrs before taxol) was “Sixty-percent”, the “survival maintained to day 80” value ([9]; therapy maintained 28 days, high dose (1000 ng)) was ~80% and the “survival maintained to day 80” value ([9]; therapy maintained 28 days, low dose (100 ng)) was “about 60%”. For the same sequence, the “survival on day 5” value ([9]; therapy maintained 28 days, low or high dose) was 100%, the “recovery of peripheral blood cells” value (Acutely bled rats) was “prompt recovery” and the “Rx MAS1: % of CD1” value [10] was 35%. For the same sequence, the “Rx MAS1: % of CD68” value [10] was 27%.
